In ChEMBL document CHEMBL1828567, “2-Phenyl and 2-heterocyclic-4-(3-(pyridin-2-yl)-1H-pyrazol-4-yl)pyridines as inhibitors of TGF-β1 and activin A signalling” (Bioorg Med Chem Lett, 2011):

target: T1, Activin receptor type-1B (Homo sapiens, UniProt P36896); assay: Inhibition of Activin A in human HEK293 cells transfected with luciferase and FAST-2 gene expression vector A3-LUX after 16 hrs by luciferase reporter gene assay; format: cell-based
T1 sequence (P36896 whole entry): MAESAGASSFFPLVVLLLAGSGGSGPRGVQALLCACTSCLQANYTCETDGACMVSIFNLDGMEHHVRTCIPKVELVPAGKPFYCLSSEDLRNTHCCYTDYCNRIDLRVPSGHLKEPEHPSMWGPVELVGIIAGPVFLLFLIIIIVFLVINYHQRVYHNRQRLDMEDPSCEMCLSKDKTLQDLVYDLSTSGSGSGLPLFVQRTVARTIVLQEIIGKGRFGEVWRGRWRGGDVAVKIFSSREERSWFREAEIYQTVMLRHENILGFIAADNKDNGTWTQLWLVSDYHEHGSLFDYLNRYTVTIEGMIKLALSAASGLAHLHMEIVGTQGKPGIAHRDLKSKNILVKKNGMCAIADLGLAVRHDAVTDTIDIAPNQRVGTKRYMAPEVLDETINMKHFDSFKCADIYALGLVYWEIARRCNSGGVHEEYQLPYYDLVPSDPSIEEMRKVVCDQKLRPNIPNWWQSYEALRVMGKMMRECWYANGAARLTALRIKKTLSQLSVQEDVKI

IC50 [µM] | Compound
> 1 | O=C(NC1CCOCC1)c1ccc(-c2cc(-c3c[nH]nc3-c3ccccn3)ccn2)cc1

target: T2, TGF-beta receptor type-1 (Homo sapiens, UniProt P36897); assay: Inhibition of TGF-beta1 signaling in human HEK293 cells transfected with luciferase and FAST-2 gene expression vector A3-LUX after 16 hrs by luciferase reporter gene assay; format: cell-based
T2 sequence (P36897 whole entry): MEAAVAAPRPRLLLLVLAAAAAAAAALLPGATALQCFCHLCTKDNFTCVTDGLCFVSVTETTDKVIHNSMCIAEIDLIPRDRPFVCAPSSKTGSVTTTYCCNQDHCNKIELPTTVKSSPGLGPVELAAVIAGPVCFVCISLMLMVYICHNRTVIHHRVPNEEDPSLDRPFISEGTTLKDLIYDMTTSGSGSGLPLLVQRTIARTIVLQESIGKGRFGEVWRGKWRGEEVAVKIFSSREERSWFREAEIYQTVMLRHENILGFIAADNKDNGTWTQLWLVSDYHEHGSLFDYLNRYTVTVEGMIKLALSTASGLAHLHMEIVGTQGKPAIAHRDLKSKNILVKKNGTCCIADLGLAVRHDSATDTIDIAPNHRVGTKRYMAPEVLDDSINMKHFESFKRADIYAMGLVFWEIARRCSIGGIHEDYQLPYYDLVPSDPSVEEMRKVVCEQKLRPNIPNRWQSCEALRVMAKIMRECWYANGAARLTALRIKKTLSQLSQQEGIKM

IC50 [µM] | Compound
0.032 | CN1CCN(c2ccc(-c3cc(-c4c[nH]nc4-c4ccccn4)ccn3)cn2)CC1
0.019 | CN(C)CCOc1ccc(-c2cc(-c3c[nH]nc3-c3ccccn3)ccn2)cc1
0.011 | CN(C)CCCOc1ccc(-c2cc(-c3c[nH]nc3-c3ccccn3)ccn2)cn1
0.088 | c1ccc(-c2n[nH]cc2-c2ccnc(-n3ccnc3)c2)nc1
0.077 | c1ccc(-c2n[nH]cc2-c2ccnc(-n3cccn3)c2)nc1
0.068 | Cn1cc(-c2cc(-c3c[nH]nc3-c3ccccn3)ccn2)cn1
